Source: the supplement of paper PMC10307832

Assays:
Assay in all cases: relative viability (nuclei count vs DMSO), 5 days (fraction); higher = more cells survive
[1] = tested on: NCI-H23
Summary of the method: (§1)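 Relative viability divides the nuclei count in treated wells by that in vehicle wells. Lung cancer cell lines were seeded in 1536-well plates, dosed by pin tool the next day, and fixed and stained after 5 days in one step with final 0.05% Triton X-100, 1% formaldehyde and 1 ug/ml Hoechst. Dosing was a single drug or a fixed anchor-drug dose plus five library-drug doses (not always all listed) in √10 steps, and values are medians of duplicate plates imaged at 4×.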

[2] = tested on: HARA
Summary of the method: as §1

[3] = tested on: NCI-H2009
Summary of the method: as §1

[4] = tested on: LC-2-ad
Summary of the method: as §1

[5] = tested on: NCI-H1651
Summary of the method: as §1

[6] = tested on: NCI-H1650
Summary of the method: as §1

[7] = tested on: EPLC-272H
Summary of the method: as §1

[8] = tested on: NCI-H2085
Summary of the method: as §1

[9] = tested on: NCI-H2228
Summary of the method: as §1

[10] = tested on: NCI-H1975
Summary of the method: as §1

[11] = tested on: NCI-H727
Summary of the method: as §1

[12] = tested on: LOU-NH91
Summary of the method: as §1

[13] = tested on: PC-3 [JPC-3]
Summary of the method: as §1

[14] = tested on: UMC-11
Summary of the method: as §1

[15] = tested on: NCI-H441
Summary of the method: as §1

[16] = tested on: NCI-H2023
Summary of the method: as §1

[17] = tested on: NCI-H838
Summary of the method: as §1

[18] = tested on: NCI-H650
Summary of the method: as §1

[19] = tested on: NCI-H2087
Summary of the method: as §1

[20] = tested on: SW 1573
Summary of the method: as §1

[21] = tested on: H3255
Summary of the method: as §1

Nc1cccc2c1CN(C1CCC(=O)NC1=O)C2=O (stereo unspecified) [Lenalidomide] + CC(C)C[C@H](NC(=O)[C@H](Cc1ccccc1)NC(=O)c1cnccn1)B(O)O [Bortezomib] (partner 0.002 µM) gave a relative viability ([1]; first compound 0.253 µM) of 1.12, a relative viability ([1]; first compound 0.8 µM) of 1.03 and a relative viability ([1]; first compound 2.53 µM) of 1.3. It also gave a relative viability ([1]; first compound 8 µM) of 0.9, a relative viability ([2]; first compound 0.253 µM) of 1.07 and a relative viability ([2]; first compound 0.8 µM) of 0.657. For the same molecule, the relative viability ([2]; first compound 2.53 µM) was 1.24, the relative viability ([2]; first compound 8 µM) was 1.19 and the relative viability ([3]; first compound 0.253 µM) was 0.929. For the same molecule, the relative viability ([3]; first compound 0.8 µM) was 1.02, the relative viability ([3]; first compound 2.53 µM) was 1.22 and the relative viability ([3]; first compound 8 µM) was 1.01. It also gave a relative viability ([4]; first compound 0.253 µM) of 0.979, a relative viability ([4]; first compound 0.8 µM) of 1.04 and a relative viability ([4]; first compound 2.53 µM) of 1.03. For the same molecule, the relative viability ([4]; first compound 8 µM) was 1.21, the relative viability ([5]; first compound 0.253 µM) was 0.923 and the relative viability ([5]; first compound 0.8 µM) was 0.728. For the same molecule, the relative viability ([5]; first compound 2.53 µM) was 1.05, the relative viability ([5]; first compound 8 µM) was 0.772 and the relative viability ([6]; first compound 0.253 µM) was 0.197. It also gave a relative viability ([6]; first compound 0.8 µM) of 0.189, a relative viability ([6]; first compound 2.53 µM) of 0.213 and a relative viability ([6]; first compound 8 µM) of 0.198. It also gave a relative viability ([7]; first compound 0.253 µM) of 0.876, a relative viability ([7]; first compound 2.53 µM) of 1.03 and a relative viability ([7]; first compound 8 µM) of 0.999. The relative viability ([8]; first compound 0.253 µM) was 1.05, the relative viability ([8]; first compound 0.8 µM) was 0.818 and the relative viability ([8]; first compound 2.53 µM) was 1.11. It also gave a relative viability ([8]; first compound 8 µM) of 0.881, a relative viability ([9]; first compound 0.253 µM) of 1 and a relative viability ([9]; first compound 0.8 µM) of 0.986. It also gave a relative viability ([9]; first compound 2.53 µM) of 1.12, a relative viability ([9]; first compound 8 µM) of 0.942 and a relative viability ([10]; first compound 0.253 µM) of 0.447. For the same molecule, the relative viability ([10]; first compound 0.8 µM) was 0.341, the relative viability ([10]; first compound 2.53 µM) was 0.412 and the relative viability ([10]; first compound 8 µM) was 0.379. The relative viability ([11]; first compound 0.253 µM) was 0.81, the relative viability ([11]; first compound 2.53 µM) was 1.05 and the relative viability ([11]; first compound 8 µM) was 0.791. For the same molecule, the relative viability ([12]; first compound 0.253 µM) was 0.478, the relative viability ([12]; first compound 0.8 µM) was 0.433 and the relative viability ([12]; first compound 2.53 µM) was 0.501. It also gave a relative viability ([12]; first compound 8 µM) of 0.522, a relative viability ([13]; first compound 0.253 µM) of 0.872 and a relative viability ([13]; first compound 0.8 µM) of 0.535. For the same molecule, the relative viability ([13]; first compound 2.53 µM) was 0.906, the relative viability ([13]; first compound 8 µM) was 0.99 and the relative viability ([14]; first compound 0.253 µM) was 0.526. It also gave a relative viability ([14]; first compound 0.8 µM) of 0.332, a relative viability ([14]; first compound 2.53 µM) of 0.856 and a relative viability ([14]; first compound 8 µM) of 0.635. It also gave a relative viability ([15]; first compound 0.253 µM) of 0.347, a relative viability ([15]; first compound 0.8 µM) of 0.383 and a relative viability ([15]; first compound 2.53 µM) of 0.529. The relative viability ([15]; first compound 8 µM) was 0.485, the relative viability ([16]; first compound 0.253 µM) was 0.954 and the relative viability ([16]; first compound 0.8 µM) was 1.08. The relative viability ([16]; first compound 2.53 µM) was 1.08, the relative viability ([16]; first compound 8 µM) was 0.744 and the relative viability ([17]; first compound 0.253 µM) was 0.801. It also gave a relative viability ([17]; first compound 0.8 µM) of 0.887, a relative viability ([17]; first compound 2.53 µM) of 1.5 and a relative viability ([17]; first compound 8 µM) of 0.446. For the same molecule, the relative viability ([18]; first compound 0.253 µM) was 0.854, the relative viability ([18]; first compound 2.53 µM) was 0.893 and the relative viability ([18]; first compound 8 µM) was 0.577. For the same molecule, the relative viability ([19]; first compound 0.253 µM) was 0.772, the relative viability ([19]; first compound 0.8 µM) was 0.656 and the relative viability ([19]; first compound 2.53 µM) was 0.922. The relative viability ([19]; first compound 8 µM) was 0.835, the relative viability ([20]; first compound 0.253 µM) was 1.14 and the relative viability ([20]; first compound 0.8 µM) was 1.05. The relative viability ([20]; first compound 2.53 µM) was 1.23, the relative viability ([20]; first compound 8 µM) was 1.03 and the relative viability ([21]; first compound 0.253 µM) was 0.886. The relative viability ([21]; first compound 0.8 µM) was 0.612, the relative viability ([21]; first compound 2.53 µM) was 0.874 and the relative viability ([21]; first compound 8 µM) was 0.828.
